Experimental data as given in the kinase profiling compilation of Christmann-Franck et al. (2016).

How the values were obtained:
Test in all cases: KINOMEscan competition binding
Details in all cases: compound 0.5 µM
NEK6 (human) = NEK6 (human) (UniProt Q9HC98)
CAMKK1 (human) = CAMKK1 (human) (UniProt Q8N5S9)
CDK13 (human) = CDK13 (human) (UniProt Q14004)
PKN3 (M.tuberculosis) = PKN3 (M.tuberculosis) (UniProt Q6P5Z2)
MINK1 (human) = MINK1 (human) (UniProt Q8N4C8)
MAK (human) = MAK (human) (UniProt P20794)
Sequence of MAK (human) (P20794 whole entry, looked up): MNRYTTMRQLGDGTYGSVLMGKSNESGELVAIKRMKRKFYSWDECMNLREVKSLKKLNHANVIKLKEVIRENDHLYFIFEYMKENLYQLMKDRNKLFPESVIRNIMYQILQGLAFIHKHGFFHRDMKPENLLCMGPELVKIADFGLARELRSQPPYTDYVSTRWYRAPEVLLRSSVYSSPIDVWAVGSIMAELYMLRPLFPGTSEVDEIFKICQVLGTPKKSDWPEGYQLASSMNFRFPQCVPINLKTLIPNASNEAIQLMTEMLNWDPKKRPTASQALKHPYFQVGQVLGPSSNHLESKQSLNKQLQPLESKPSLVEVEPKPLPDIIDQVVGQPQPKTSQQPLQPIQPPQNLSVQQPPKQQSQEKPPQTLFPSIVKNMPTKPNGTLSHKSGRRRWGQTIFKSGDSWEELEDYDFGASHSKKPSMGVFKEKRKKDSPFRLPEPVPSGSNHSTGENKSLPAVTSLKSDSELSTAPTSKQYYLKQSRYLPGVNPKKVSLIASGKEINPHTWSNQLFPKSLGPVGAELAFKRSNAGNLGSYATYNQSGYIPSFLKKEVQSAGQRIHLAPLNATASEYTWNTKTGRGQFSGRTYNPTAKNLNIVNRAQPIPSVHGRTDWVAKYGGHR

PRKCD (human) = PRKCD (human) (UniProt Q05655)
TLK1 (human) = TLK1 (human) (UniProt Q9UKI8)
CHUK (human) = CHUK (human) (UniProt O15111)
Sequence of CHUK (human) (O15111 whole entry, looked up): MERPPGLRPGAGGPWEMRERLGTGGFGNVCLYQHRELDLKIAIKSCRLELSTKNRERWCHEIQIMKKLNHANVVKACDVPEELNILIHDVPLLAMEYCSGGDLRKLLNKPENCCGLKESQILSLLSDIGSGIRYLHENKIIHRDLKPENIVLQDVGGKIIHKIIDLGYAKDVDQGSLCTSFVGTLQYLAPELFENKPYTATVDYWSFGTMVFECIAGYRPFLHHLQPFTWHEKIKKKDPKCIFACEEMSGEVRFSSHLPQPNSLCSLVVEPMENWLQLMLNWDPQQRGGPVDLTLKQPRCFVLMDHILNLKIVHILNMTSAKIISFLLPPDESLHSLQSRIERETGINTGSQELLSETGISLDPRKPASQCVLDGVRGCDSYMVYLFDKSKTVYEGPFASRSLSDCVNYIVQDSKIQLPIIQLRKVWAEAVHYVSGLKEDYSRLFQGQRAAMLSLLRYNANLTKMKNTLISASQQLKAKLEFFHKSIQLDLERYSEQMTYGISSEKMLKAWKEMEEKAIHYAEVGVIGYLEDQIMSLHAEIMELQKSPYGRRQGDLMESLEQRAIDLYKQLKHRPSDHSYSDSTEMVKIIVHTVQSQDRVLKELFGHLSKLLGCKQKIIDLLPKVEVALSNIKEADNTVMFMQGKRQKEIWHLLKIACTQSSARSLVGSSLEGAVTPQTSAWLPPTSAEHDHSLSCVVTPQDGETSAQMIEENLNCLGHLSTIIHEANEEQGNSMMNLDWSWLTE

BRSK2 (human) = BRSK2 (human) (UniProt Q8IWQ3)
[1] = system: MET (human), P08581 [M1250T]
RIOK3 (human) = RIOK3 (human) (UniProt O14730)
[2] = system: PIK3CA (human), P42336 [E542K]
PHKG2 (human) = PHKG2 (human) (UniProt P15735)
PIM2 (human) = PIM2 (human) (UniProt Q9P1W9)
MAP3K10 (human) = MAP3K10 (human) (UniProt Q02779)
RIPK2 (human) = RIPK2 (human) (UniProt O43353)
PIK3CB (human) = PIK3CB (human) (UniProt P42338)
MYO3A (human) = MYO3A (human) (UniProt Q8NEV4)
STK17A (human) = STK17A (human) (UniProt Q9UEE5)
FLT1 (human) = FLT1 (human) (UniProt P17948)
CDK18 (human) = CDK18 (human) (UniProt Q07002)
[3] = system: PIK3CA (human), P42336 [I800L]
[4] = system: KIT (human), P10721 [V559D]
Sequence of KIT (human), P10721 [V559D] (P10721 whole entry V559D, looked up): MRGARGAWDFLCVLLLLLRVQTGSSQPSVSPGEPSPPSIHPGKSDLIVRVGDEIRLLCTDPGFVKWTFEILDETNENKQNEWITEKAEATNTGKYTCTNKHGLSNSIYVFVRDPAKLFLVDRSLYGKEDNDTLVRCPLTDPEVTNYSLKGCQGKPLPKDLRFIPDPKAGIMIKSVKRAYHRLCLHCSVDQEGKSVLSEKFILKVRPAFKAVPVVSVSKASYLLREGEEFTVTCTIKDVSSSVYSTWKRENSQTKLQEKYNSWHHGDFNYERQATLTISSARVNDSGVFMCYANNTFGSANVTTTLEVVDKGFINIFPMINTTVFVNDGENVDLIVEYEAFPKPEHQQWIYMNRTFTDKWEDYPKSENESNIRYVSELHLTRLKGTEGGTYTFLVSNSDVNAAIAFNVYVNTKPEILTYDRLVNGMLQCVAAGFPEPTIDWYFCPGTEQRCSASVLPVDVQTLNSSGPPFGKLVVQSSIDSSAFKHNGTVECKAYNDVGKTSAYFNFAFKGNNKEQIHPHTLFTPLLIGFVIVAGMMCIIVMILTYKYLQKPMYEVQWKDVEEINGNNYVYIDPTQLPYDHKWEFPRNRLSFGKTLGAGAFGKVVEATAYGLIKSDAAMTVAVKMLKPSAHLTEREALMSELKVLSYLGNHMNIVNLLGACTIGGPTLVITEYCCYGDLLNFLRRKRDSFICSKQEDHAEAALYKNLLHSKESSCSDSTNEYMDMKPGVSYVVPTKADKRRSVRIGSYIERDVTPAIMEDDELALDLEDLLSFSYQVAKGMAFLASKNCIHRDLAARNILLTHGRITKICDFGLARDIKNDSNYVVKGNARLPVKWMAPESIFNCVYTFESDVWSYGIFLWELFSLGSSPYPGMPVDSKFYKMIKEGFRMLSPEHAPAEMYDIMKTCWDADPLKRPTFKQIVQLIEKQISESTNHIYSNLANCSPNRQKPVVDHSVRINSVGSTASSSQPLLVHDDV

MST1R (human) = MST1R (human) (UniProt Q04912)
TNK2 (human) = TNK2 (human) (UniProt Q07912)
FES (human) = FES (human) (UniProt P07332)
CAMK4 (human) = CAMK4 (human) (UniProt Q16566)
CDK4 CCND1 (human) = CDK4 CCND1 (human) (UniProt P11802+P24385)
RPS6KA5 KD2 (human) = RPS6KA5 KD2 (human) (UniProt O75582)
Sequence of RPS6KA5 KD2 (human) (O75582 whole entry, looked up): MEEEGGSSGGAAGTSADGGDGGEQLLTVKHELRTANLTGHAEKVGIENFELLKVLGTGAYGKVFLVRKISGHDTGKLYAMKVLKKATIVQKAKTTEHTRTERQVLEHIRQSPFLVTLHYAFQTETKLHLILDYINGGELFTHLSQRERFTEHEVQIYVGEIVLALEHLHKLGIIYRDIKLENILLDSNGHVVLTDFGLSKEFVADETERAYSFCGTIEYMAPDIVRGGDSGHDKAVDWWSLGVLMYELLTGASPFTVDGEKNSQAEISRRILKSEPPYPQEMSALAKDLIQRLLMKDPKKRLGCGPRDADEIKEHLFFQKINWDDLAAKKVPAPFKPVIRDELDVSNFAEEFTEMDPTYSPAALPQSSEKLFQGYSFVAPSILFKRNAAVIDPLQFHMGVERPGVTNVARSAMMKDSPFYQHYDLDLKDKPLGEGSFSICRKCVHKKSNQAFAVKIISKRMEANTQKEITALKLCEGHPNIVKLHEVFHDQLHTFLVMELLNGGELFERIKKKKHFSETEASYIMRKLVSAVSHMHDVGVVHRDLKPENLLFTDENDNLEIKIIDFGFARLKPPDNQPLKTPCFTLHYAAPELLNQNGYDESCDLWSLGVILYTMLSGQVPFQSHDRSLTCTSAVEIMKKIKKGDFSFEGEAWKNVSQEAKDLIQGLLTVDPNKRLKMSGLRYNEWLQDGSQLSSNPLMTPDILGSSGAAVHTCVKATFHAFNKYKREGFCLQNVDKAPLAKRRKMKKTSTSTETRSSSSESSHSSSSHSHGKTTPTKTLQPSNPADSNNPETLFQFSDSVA

YES1 (human) = YES1 (human) (UniProt P07947)
EIF2AK2 (human) = EIF2AK2 (human) (UniProt P19525)
Sequence of EIF2AK2 (human) (P19525 whole entry, looked up): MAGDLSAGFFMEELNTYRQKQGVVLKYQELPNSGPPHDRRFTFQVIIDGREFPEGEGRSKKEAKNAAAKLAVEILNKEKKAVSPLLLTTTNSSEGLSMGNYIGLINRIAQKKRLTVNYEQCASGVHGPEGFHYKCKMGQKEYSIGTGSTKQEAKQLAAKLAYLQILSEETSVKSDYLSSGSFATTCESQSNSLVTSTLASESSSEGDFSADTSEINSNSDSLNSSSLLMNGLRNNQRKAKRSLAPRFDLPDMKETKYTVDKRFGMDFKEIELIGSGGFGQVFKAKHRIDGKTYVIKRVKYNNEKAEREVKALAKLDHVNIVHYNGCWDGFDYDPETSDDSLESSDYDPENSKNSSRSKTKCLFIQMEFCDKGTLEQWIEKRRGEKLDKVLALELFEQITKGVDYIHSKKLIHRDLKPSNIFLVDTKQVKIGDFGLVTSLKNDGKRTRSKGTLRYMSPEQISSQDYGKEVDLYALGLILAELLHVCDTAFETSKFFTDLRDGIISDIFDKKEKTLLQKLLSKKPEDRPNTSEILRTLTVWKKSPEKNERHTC

CSF1R (human) = CSF1R (human) (UniProt P07333)
ROCK2 (human) = ROCK2 (human) (UniProt O75116)
CSNK1A1 (human) = CSNK1A1 (human) (UniProt P48729)
Sequence of CSNK1A1 (human) (P48729 whole entry, looked up): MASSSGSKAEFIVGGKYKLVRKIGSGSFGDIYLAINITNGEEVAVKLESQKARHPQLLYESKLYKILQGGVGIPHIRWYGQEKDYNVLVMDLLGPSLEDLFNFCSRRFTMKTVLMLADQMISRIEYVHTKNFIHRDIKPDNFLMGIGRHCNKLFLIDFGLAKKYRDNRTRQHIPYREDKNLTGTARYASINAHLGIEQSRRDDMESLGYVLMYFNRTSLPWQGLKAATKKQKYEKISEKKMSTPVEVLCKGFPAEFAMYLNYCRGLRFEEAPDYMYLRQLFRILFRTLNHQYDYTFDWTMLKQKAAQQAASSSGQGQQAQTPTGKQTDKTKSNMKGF

TSSK1B (human) = TSSK1B (human) (UniProt Q9BXA7)
SRPK3 (human) = SRPK3 (human) (UniProt Q9UPE1)
PRKD1 (human) = PRKD1 (human) (UniProt Q15139)
CAMKK2 (human) = CAMKK2 (human) (UniProt Q96RR4)
TAOK3 (human) = TAOK3 (human) (UniProt Q9H2K8)
PI4KB (human) = PI4KB (human) (UniProt Q9UBF8)
Sequence of PI4KB (human) (Q9UBF8 whole entry, looked up): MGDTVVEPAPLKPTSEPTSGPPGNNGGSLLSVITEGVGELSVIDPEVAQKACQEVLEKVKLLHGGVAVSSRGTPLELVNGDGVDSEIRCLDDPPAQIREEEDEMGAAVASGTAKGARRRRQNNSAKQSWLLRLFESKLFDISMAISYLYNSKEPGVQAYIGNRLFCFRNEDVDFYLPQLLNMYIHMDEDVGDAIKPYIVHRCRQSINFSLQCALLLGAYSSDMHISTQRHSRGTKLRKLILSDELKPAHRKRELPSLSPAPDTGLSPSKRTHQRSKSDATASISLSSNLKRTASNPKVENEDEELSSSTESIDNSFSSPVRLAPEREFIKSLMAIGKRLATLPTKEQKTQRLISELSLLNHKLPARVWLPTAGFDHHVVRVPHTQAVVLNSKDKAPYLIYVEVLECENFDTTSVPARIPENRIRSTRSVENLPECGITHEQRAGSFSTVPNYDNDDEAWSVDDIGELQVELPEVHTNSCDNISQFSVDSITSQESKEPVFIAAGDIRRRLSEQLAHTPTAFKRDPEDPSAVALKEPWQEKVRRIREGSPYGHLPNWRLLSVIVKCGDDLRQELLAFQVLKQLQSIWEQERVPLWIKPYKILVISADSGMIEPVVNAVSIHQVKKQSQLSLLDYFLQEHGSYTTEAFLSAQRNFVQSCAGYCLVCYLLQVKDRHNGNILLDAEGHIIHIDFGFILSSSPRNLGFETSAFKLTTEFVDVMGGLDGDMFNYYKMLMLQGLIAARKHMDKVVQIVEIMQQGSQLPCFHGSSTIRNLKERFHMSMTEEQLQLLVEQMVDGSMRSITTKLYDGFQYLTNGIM

In the case of `Cn1c2ccccc2c2c3c(c4c5ccccc5n(CCC#N)c4c21)CNC3=O`, the kinase still bound, per cent of control (NEK6 (human)) is reported as 100%, the kinase still bound, per cent of control (CAMKK1 (human)) is reported as 6.1% and the kinase still bound, per cent of control (CDK13 (human)) is reported as 100%. The kinase still bound, per cent of control (PKN3 (M.tuberculosis)) was 100%, the kinase still bound, per cent of control (MINK1 (human)) was 1% and the kinase still bound, per cent of control (MAK (human)) was 100%. The kinase still bound, per cent of control (PRKCD (human)) was 43%, the kinase still bound, per cent of control (TLK1 (human)) was 83% and the kinase still bound, per cent of control (CHUK (human)) was 88%. For the same molecule, the kinase still bound, per cent of control (BRSK2 (human)) was 49%, the kinase still bound, per cent of control [1] was 100% and the kinase still bound, per cent of control (RIOK3 (human)) was 1.2%. For the same molecule, the kinase still bound, per cent of control [2] was 100%, the kinase still bound, per cent of control (PHKG2 (human)) was 4.4% and the kinase still bound, per cent of control (PIM2 (human)) was 100%. For the same molecule, the kinase still bound, per cent of control (MAP3K10 (human)) was 98%, the kinase still bound, per cent of control (RIPK2 (human)) was 100% and the kinase still bound, per cent of control (PIK3CB (human)) was 88%. For the same molecule, the kinase still bound, per cent of control (MYO3A (human)) was 35%, the kinase still bound, per cent of control (STK17A (human)) was 71% and the kinase still bound, per cent of control (FLT1 (human)) was 95%. For the same molecule, the kinase still bound, per cent of control (CDK18 (human)) was 91%, the kinase still bound, per cent of control [3] was 19% and the kinase still bound, per cent of control [4] was 71%. The kinase still bound, per cent of control (MST1R (human)) was 100%, the kinase still bound, per cent of control (TNK2 (human)) was 18% and the kinase still bound, per cent of control (FES (human)) was 85%. The kinase still bound, per cent of control (CAMK4 (human)) was 100%, the kinase still bound, per cent of control (CDK4 CCND1 (human)) was 57% and the kinase still bound, per cent of control (RPS6KA5 KD2 (human)) was 71%. It also gave a kinase still bound, per cent of control (YES1 (human)) of 96%, a kinase still bound, per cent of control (EIF2AK2 (human)) of 89% and a kinase still bound, per cent of control (CSF1R (human)) of 37%. It also gave a kinase still bound, per cent of control (ROCK2 (human)) of 18%, a kinase still bound, per cent of control (CSNK1A1 (human)) of 100% and a kinase still bound, per cent of control (TSSK1B (human)) of 82%. It also gave a kinase still bound, per cent of control (SRPK3 (human)) of 3.8%, a kinase still bound, per cent of control (PRKD1 (human)) of 24% and a kinase still bound, per cent of control (CAMKK2 (human)) of 1.6%. For the same molecule, the kinase still bound, per cent of control (TAOK3 (human)) was 12% and the kinase still bound, per cent of control (PI4KB (human)) was 62%.
